Experimental findings from patent publication US6812037B1, “Antimitotic compounds” (The University of British Columbia, priority 1999, dated 2004) are described below.

Series [1] deals with MCF-7 cells. Description: ELICA of mitotic cells (Enzyme-Linked Immuno-Cytochemical assay, TG-3 antibody). Type of series: cell-based, human. Here is the method:
(§1) Cell Culture and Treatment. Human breast carcinoma MCF-7 cells were cultured as monolayers. The cells were seeded at 10,000 per well of 96-well polystyrene tissue culture plates (Falcon) in 200 μl medium and were allowed to grow overnight. Crude extracts of marine organisms were then added at about 10 μg/ml or 1 μg/ml, from 1000-fold stocks in dimethylsulfoxide (DMSO). Untreated samples received an equivalent amount of DMSO and several as negative controls. Cells treated with 100 ng/ml nocodazole (Sigma), from a 1000-fold stock in DMSO, served as positive controls. Cells were incubated for 16-20 hours. The relative number of cells in mitosis was then determined by microscopy, by enzyme-linked immunosorbent assay (ELISA) or by an enzyme-linked cytochemical assay (ELICA), as described below.
ELICA of Miltotic Cells. While the ELISA is accurate and reliable, it requires transferring cell lysates to ELISA plates and many solution changes. The assay of this invention is faster and easier to use for drug screening. […] In a preferred assay of this invention, cells are fixed with formaldehyde in their microtiter culture plates and permeabilized with methanol and detergents. The TG-3 primary antibody and HRP-conjugated secondary antibody may be added sequentially but are preferably added simultaneously. Colorimetric detection of HRP activity remains unchanged. This new assay is termed: an Enzyme-Linked Immuno-Cytochemical assay (ELICA).
After incubation with marine extracts, the medium was withdrawn carefully using a pipetor and 100 μl of 10 mM Tris-HCl (pH 7.4) 150 mM NaCl, containing 3.7% formaldehyde was added to fix the cells for 30 minutes at 4° C. The fixative was removed and replaced with 100 μl of cold (−20° C.) methanol for 5 minutes to permeabilize the fixed cells. The methanol was removed and the wells were rinsed briefly with 200 μl antibody buffer. Then, 100 μl antibody buffer containing 0.1-0.15 μg/ml TG-3 monoclonal antibody and HRP-conjugated goat anti-mouse IgM secondary antibody at a 50-fold dilution, was added to 16-20 hours at 4° C. The plates were washed twice with 200 μl 10 mM Tris-HCl pH 7.4, 0.02% Tween 20™. Then, 100 μl of 120 mM Na2HPO4, 100 mM citric acid (pH 4.0) containing […] 2,2′-azino-bis(-3ethylbenz-thiazoline-6-sulfonic acid) and 0.01% hydrogen peroxide was added for 1 hour at room temperature and the absorbance at 405 nm was measured.

The subject of series [2] is SCCVII squamous cell carcinoma. In words: In vivo antimitotic/anticancer activity, tumor cell survival by colony formation. Also noted: species or system C3H mice. As to the method:
In Vivo Antimitotic/Anticancer Activity. C3H mice of approximately 26 g bearing SCCVII squamous cell carcinoma (tumor size approximately 0.45 g) were injected intraperitoneally with desmethyleleutherobin. 24 hours later, the mice were intravenously injected with Hoechst 33342™ and then sacrificed. The tumors were removed and single cell suspensions prepared and sorted on the basis of a concentration gradient of Hoechst 33342™, to provide cells sorted according to varying distance from the blood supply. The cells were plated and survival analyzed by observing colony formation.

Series [3] concerns MCF-7 cells. In words: Mitotic arrest of MCF-7 cells, counting mitotic cells by microscopy (mitotic spreads). Type of series: cell-based, human. As to the method:
as §1
Screens for Antimitotic Agents. MCF-7 cells were incubated for 20 hours with different concentrations of the antimitotic drug paclitaxel, and the proportion of cells arrested in mitosis was measured by counting mitotic cells in the microscope, and by ELISA. Paclitaxel induced mitotic arrest in a concentration-dependent manner with half-maximal activity at 10 nM measured by microscopy (FIG. 1A) and at 4 nM measured by ELISA (FIG. 1B, □)
Further comparison of the antimitotic activities of eleutherobin and desmethyleleutherobin was done using microscopic examination of a standard cell spread.

In series [4] the test system is MCF-7 cells. Description: Western blot with TG-3 antibody, densitometric scanning of the 105-kDa band. Type of series: cell-based, human. As to conditions: cells treated for 20 hours with nocodazole vs cycling MCF-7 cells. Here is the method:
The TG-3 monoclonal antibody, originally described as a marker of Alzheimer's disease, is highly specific for mitotic cells. […] In Western blots, the antibody reacts with a 105-kDa protein identified as a mitotically phosphorylated form of nucleolin, that is present in abundance in extracts of cells treated for 20 hours with the antimitotic agent nocodazole but present at only low levels in extracts from cycling MCF-7 cells. Densitometric scanning of the bands on Western blots in these examples show a 27-fold difference in intensity between nocodazole-treated and untreated cells, corresponding well to the difference in the number of mitotic cells in the two samples: 80% for the nocodazole-treated sample and 3% for the untreated sample, as measured by microscopy.

Series [5] relates to MCF-7 cells. In words: ELISA of mitotic cells (TG-3 antibody). Type of series: cell-based, human. As to the method:
TG-3 also recognizes mitotic cells in EUISA. In the ELISA assay, the cells may be grown in multi-well plates, lysed and transferred to protein-binding ELISA plates for adsorption to the plastic surface. The antigen may be detected by incubating with TG-3 antibody, an HRP-conjugated secondary antibody and performing a calorimetric determination of HRP activity.
as §1, with “Cells treated with 100 ng/ml nocodazole (Sigma), from a 1000-fold stock in DMSO, served as positive controls. Cells were incubated for 16-20 hours.” left out
ELISA of Mitotic Cells. […] Finally, 100 μl of 120 mM Na2HPO4, 100 mM citric acid (pH 4.0) containing 0.5 μg/ml 2,2′-azino-bis (3-ethyl-benzthiazoline-6-sulfonic acid) and 0.01% hydrogen peroxide was added for 1 hour at room temperature and absorbance at 405 nm was determined using a Dynex MRX™ plate reader.
For orientation: In an ELISA, binding on a coated surface is turned into a signal by an enzyme label.

Where [6] appears, read: MCF-7 cells, FIG. 2, read-out: IC50, antimitotic activity as determined by ELICA.

Take `COC(=O)/C1=C/[C@@H]2[C@@H](C(C)C)CC=C(C)[C@@H]2C[C@H](OC(=O)/C=C/c2cn(C)cn2)[C@]2(C)C=C[C@@]1(O)O2` [Sarcodictyin A, sarcodictyin A]: the IC50 in the series on MCF-7 cells [1] (setting [6]) was about 2000 nM.

As to `CO[C@]12C=C[C@](C)(O1)[C@@H](OC(=O)/C=C\c1cn(C)cn1)C[C@H]1C(C)=CC[C@H](C(C)C)[C@H]1/C=C\2CO[C@@H]1OC[C@@H](O)[C@@H](O)[C@@H]1OC(C)=O` [Z-eleutherobin], in the series on MCF-7 cells [1] (setting [6]), the IC50 is about 250 nM.

For the compound `CO[C@]12C=C[C@](C)(O1)[C@@H](OC(=O)/C=C/c1cn(C)cn1)C[C@@H]1[C@H](/C=C\2CO[C@@H]2OC[C@@H](O)[C@@H](O)[C@@H]2OC(C)=O)[C@@H](C(C)C)C=C[C@@]1(C)O` [caribaeoside], in the series with MCF-7 cells [1] (setting [6]), the concentration for half-maximal inhibition (IC50) was about 20000 nM.

As to `CC(=O)O[C@@H]1[C@H](OC/C2=C/[C@@H]3[C@@H](C(C)C)CC=C(C)[C@@H]3C[C@H](OC(=O)/C=C/c3cn(C)cn3)[C@]3(C)C=C[C@@]2(O)O3)OC[C@@H](O)[C@H]1O` [desmethyleleutherobin], the “overt toxicity to the mice” value in series [2] (intraperitoneal injection, C3H mice bearing SCCVII tumor) is “no overt toxicity”. Moreover, the tumor cells killed result in series [2] (intraperitoneal, doses of about 100 μg or more per mouse, 24 hours, FIG. 5) is listed as “about 90%”. For the same compound, the IC50 in the series with MCF-7 cells [3] (MCF-7 cells, FIG. 4, read-out: IC50, antimitotic activity by microscopic examination of a standard cell spread) was about 25 nM; in the series with MCF-7 cells [1] (setting [6]) it was about 20 nM.

Regarding `CO[C@]12C=C[C@](C)(O1)[C@@H](OC(=O)/C=C/c1cn(C)cn1)C[C@H]1C(C)=CC[C@H](C(C)C)[C@H]1/C=C\2COC1OCC(O)C(O)C1OC(C)=O` (stereo partly drawn) [eleutherobin], the half-maximal inhibitory concentration (IC50) in the series with MCF-7 cells [3] (Homo sapiens, MCF7, read-out: IC50, antimitotic activity by microscopic examination of a standard cell spread) was about 200 nM; with MCF-7 cells [1] (Homo sapiens, MCF7, read-out: IC50, antimitotic activity as determined by ELICA) it was about 100 nM.

Consider `CO[C@]12C=C[C@](C)(O1)[C@@H](OC(=O)/C=C/c1cn(C)cn1)C[C@H]1C(C)=CC[C@H](C(C)C)[C@H]1/C=C\2CO[C@@H]1OC[C@@H](O)[C@@H](OC(C)=O)[C@@H]1O` [isoeleutherobin A], for which the IC50 with MCF-7 cells [1] (setting [6]) is about 50 nM.

Take `COC(=O)Nc1nc2ccc(C(=O)c3cccs3)cc2[nH]1` [nocodazole]: the “difference in band intensity between treated and untreated cells (TG-3 Western blot)” value in the series on MCF-7 cells [4] worked out at 27 fold. Besides, in the series with MCF-7 cells [3] (cells treated for 20 hours with nocodazole, untreated sample 3%), the “number of mitotic cells as measured by microscopy” value was 80%.

For `CC(=O)O[C@H]1C(=O)[C@@]2(C)[C@H]([C@H](OC(=O)c3ccccc3)[C@]3(O)C[C@H](OC(=O)[C@H](O)[C@@H](NC(=O)c4ccccc4)c4ccccc4)C(C)=C1C3(C)C)[C@]1(OC(C)=O)CO[C@@H]1C[C@@H]2O` [paclitaxel], the EC50 in the series on MCF-7 cells [3] (Homo sapiens, MCF7, MCF-7 cells, 20 hours incubation, FIG. 1A, read-out: half-maximal activity, mitotic arrest measured by microscopy) was found to be 10 nM; in the series with MCF-7 cells [1] (Homo sapiens, MCF7, MCF-7 cells, FIG. 1B, read-out: half-maximal activity, mitotic arrest detected by ELICA) it was 1.5 nM; in the series on MCF-7 cells [5] (Homo sapiens, MCF7, 20 hours incubation, FIG. 1B, read-out: half-maximal activity, mitotic arrest measured by ELISA), 4 nM.

With WF-1360 [Compound A], the IC50 with MCF-7 cells [5] (read-out: half-maximal antimitotic activity (IC50) as determined by ELISA) was 52 nM.

For caribaeolin, in the series on MCF-7 cells [1] (setting [6]), the IC50 is about 20000 nM.

For the compound desacetyleleutherobin, the half-maximal inhibitory concentration (IC50) with MCF-7 cells [1] (setting [6]) was about 400 nM.

Broadly, the IC50 is the point on the concentration scale where inhibition reaches its midpoint.
